Among the data in PubChem BioAssay (NCI) are TGI and GI50 values, retold here.

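Where inhibition never reached the appropriate level, the endpoint shown equals the highest concentration tested. Otherwise, values were interpolated linearly from a five-concentration, 48-hour dose response in 96-well plates. GI50 marks 50% less growth. TGI: concentration producing complete growth inhibition.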

Some test systems named below: HCC-2998 colon; NCI-H23 lung; SF-268 CNS; SK-OV-3 ovarian; SR leukemia; SW-620 colon; UO-31 renal; HS 578T breast; NCI/ADR-RES ovarian.
Test in all cases: NCI-60 cell line screen, 48 h

Turning to `Cc1ccc(S(=O)(=O)NCCCN(CCCNS(=O)(=O)c2ccc(C)cc2)S(=O)(=O)c2ccc(C)cc2)cc1`, the TGI in the assay with HCC-2998 colon, with NCI-H23 lung, in the assay with SF-268 CNS, with SK-OV-3 ovarian, in the assay on SR leukemia and in the assay on SW-620 colon was > 100 µM each time. For the same compound, in the assay on UO-31 renal, the TGI is > 100 µM.
Regarding `C=CCCc1cc(OC)ccc1CN(C)C(C)(C)CO`, the TGI in the assay with NCI-H23 lung, in the assay on SF-268 CNS, in the assay with SR leukemia and in the assay on SW-620 colon was > 100 µM throughout.
Take `COCCNC(=O)C1C(=O)N(CCOC)C(=O)/C1=N/N` (centres undefined): the TGI with NCI-H23 lung, with SF-268 CNS, with SK-OV-3 ovarian, in the assay on SR leukemia, in the assay with SW-620 colon and with UO-31 renal was > 100 µM each time.
`COC1OC(OC)C2C(c3c(C)cc(C)cc3C)=NOC12` (centres undefined): the TGI with HCC-2998 colon, in the assay with NCI-H23 lung, with SF-268 CNS, in the assay on SK-OV-3 ovarian, in the assay on SR leukemia and in the assay with SW-620 colon was > 100 µM throughout. The TGI with UO-31 renal was > 100 µM.
With `COc1ccc(C(=O)O/N=C2\CCCC\C2=C/c2ccccc2)cc1`, the TGI with HCC-2998 colon was > 100 µM; in the assay on NCI-H23 lung, 41.5 µM; with SF-268 CNS, > 100 µM; in the assay on SK-OV-3 ovarian, > 100 µM; in the assay with SW-620 colon it was > 100 µM; in the assay with UO-31 renal, > 100 µM.
Regarding `CCCCN(CCCC)C(=Nc1ccccc1)N(CCCC)CCCC`, the TGI with HCC-2998 colon is 15.4 µM; with NCI-H23 lung, 5.97 µM; in the assay with SF-268 CNS it was 46.8 µM; in the assay on SK-OV-3 ovarian, 22.6 µM; with SW-620 colon, 15.8 µM; with UO-31 renal, 14.3 µM.
Regarding `N#Cc1c([N+](=O)[O-])cc(C(F)(F)F)cc1[N+](=O)[O-]`, the TGI in the assay with NCI-H23 lung was 19.2 µM; in the assay on SF-268 CNS, 27.3 µM; in the assay with SK-OV-3 ovarian it was 33.2 µM; in the assay on SW-620 colon, 8.77 µM; with UO-31 renal, 33.5 µM.
As to `Clc1ccc(Cl)c(N/N=C\c2c[nH]c3ccccc23)c1`, the GI50 in the assay on HCC-2998 colon is 13.6 µM; in the assay on HS 578T breast it was 3.89 µM; in the assay with NCI-H23 lung, 14.1 µM; in the assay on NCI/ADR-RES ovarian, 15.6 µM; in the assay with SF-268 CNS it was > 100 µM; in the assay on SK-OV-3 ovarian, 12.8 µM. The GI50 in the assay on SR leukemia is 4.14 µM; in the assay with SW-620 colon it was 10.3 µM; in the assay with UO-31 renal, 3.7 µM. The TGI in the assay with HCC-2998 colon was 29.9 µM; with HS 578T breast, 23.1 µM; with NCI-H23 lung it was 29.9 µM; with NCI/ADR-RES ovarian, 34.8 µM; in the assay with SF-268 CNS, > 100 µM; in the assay on SK-OV-3 ovarian, 27.2 µM. Further, the results for the TGI in the assay on SR leukemia, in the assay on SW-620 colon and with UO-31 renal were 32.2 µM, 24.6 µM and 18.4 µM, respectively.
Consider `c1ccc([CH2][Sn]([CH2]c2ccccc2)([S]c2cccc3cccnc23)[S]c2cccc3cccnc23)cc1`, for which the GI50 in the assay with HCC-2998 colon was 0.139 µM; in the assay on NCI-H23 lung, 0.273 µM; with SF-268 CNS, 0.489 µM; in the assay on SK-OV-3 ovarian, 1.76 µM; in the assay with SW-620 colon, 0.21 µM; in the assay with UO-31 renal, 0.187 µM. Further, the TGI was found to be 0.334 µM in the assay on HCC-2998 colon; 0.998 µM in the assay on NCI-H23 lung; 2.3 µM in the assay with SF-268 CNS; 3.15 µM in the assay with SK-OV-3 ovarian; 0.813 µM in the assay on SW-620 colon; 0.399 µM in the assay with UO-31 renal.
As for `C=C1C(=O)OC2C1C(OC(=O)/C(=C/C)COC(C)=O)CC1(CO1)C1C(OC(=O)/C(=C/C)CO)C=C(C)C21` (centres undefined), the TGI in the assay with HCC-2998 colon was found to be 3.39 µM; in the assay with NCI-H23 lung, 3.97 µM; in the assay with SF-268 CNS, 9.35 µM; with SK-OV-3 ovarian it was 31.3 µM; with SW-620 colon, 9.56 µM; in the assay with UO-31 renal, 11.2 µM.
Regarding `CN(C)CCCn1cnc2ncccc2c1=O`, the TGI in the assay on HCC-2998 colon, in the assay with NCI-H23 lung, with SF-268 CNS, with SK-OV-3 ovarian, with SR leukemia and in the assay on SW-620 colon was > 100 µM each time. In the assay on UO-31 renal, the TGI is > 100 µM.
Take `Cc1c(C(=O)/C=C/c2ccco2)[n+](=O)c2ccccc2n1[O-]`: the TGI with HCC-2998 colon, in the assay with NCI-H23 lung, in the assay on SF-268 CNS, with SK-OV-3 ovarian, in the assay on SR leukemia and in the assay with SW-620 colon was > 100 µM throughout. Also, the TGI with UO-31 renal is > 100 µM.
With `CN1CCC(O)C(CNC23CC4CC(CC(C4)C2)C3)C1` (centres undefined), the TGI in the assay with NCI-H23 lung, in the assay on SF-268 CNS, in the assay with SK-OV-3 ovarian, in the assay with SR leukemia, in the assay on SW-620 colon and in the assay with UO-31 renal was > 100 µM throughout.
For the compound `CCCOC(=O)C1CCC(=O)N1C(=O)C(Cl)Cl` (centres undefined), the TGI in the assay on HCC-2998 colon, in the assay with NCI-H23 lung, in the assay with SF-268 CNS, with SK-OV-3 ovarian, in the assay on SW-620 colon and with UO-31 renal was > 100 µM in each case.
Take `CCS[C@H]1NC(=O)C1[C@H](C)O[Si](C)(C)C(C)(C)C` (some centres undefined): the TGI in the assay with NCI-H23 lung, with SF-268 CNS and in the assay with SW-620 colon was > 100 µM throughout.
For the compound `COc1ccc([C@H]2c3cc(OC)c(OC)cc3C=C(C=O)C2CO)cc1OC` (some centres undefined), the GI50 in the assay with HCC-2998 colon was 12.1 µM; in the assay with HS 578T breast, 2.72 µM; with NCI-H23 lung, 7.15 µM; with NCI/ADR-RES ovarian, 23.1 µM; in the assay with SF-268 CNS, 4.74 µM; in the assay on SK-OV-3 ovarian, 4.23 µM. Moreover, the results for the GI50 in the assay on SR leukemia, in the assay with SW-620 colon and with UO-31 renal were 4.95 µM, 3.49 µM and 3.6 µM, respectively. For the same compound, the TGI with HCC-2998 colon is 76.3 µM; in the assay with HS 578T breast, 17.3 µM; with NCI-H23 lung, > 100 µM; with NCI/ADR-RES ovarian, > 100 µM; in the assay on SF-268 CNS it was > 100 µM; in the assay with SK-OV-3 ovarian, > 100 µM. Besides, the TGI in the assay with SR leukemia, with SW-620 colon and with UO-31 renal was > 100 µM each time.
